Test results published in patent US9447122B2, “Arginase inhibitors and methods of use thereof” (AstraZeneca AB, priority 2010, dated 2016).
Like-named read-outs stand apart in the source and are kept apart here.

What was measured:
human arginase I = target: T1, human arginase I (Homo sapiens, UniProt P05089); experiment: Arginase inhibition, QuantiChrom colorimetric urea assay, IC50 converted to Ki; assay type: biochemical
T1 sequence (P05089 1-322): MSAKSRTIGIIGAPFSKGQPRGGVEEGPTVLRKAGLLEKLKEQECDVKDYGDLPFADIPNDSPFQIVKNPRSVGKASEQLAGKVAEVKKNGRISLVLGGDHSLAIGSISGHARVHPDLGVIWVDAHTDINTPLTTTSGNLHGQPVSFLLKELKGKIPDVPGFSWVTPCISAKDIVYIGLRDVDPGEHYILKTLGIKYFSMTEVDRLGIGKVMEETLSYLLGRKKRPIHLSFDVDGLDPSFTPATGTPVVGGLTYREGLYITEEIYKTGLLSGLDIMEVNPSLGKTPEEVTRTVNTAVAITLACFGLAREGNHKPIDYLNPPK
Experimental: (§1) For some compounds, their inhibitory potency at pH 7.5 was compared to the inhibitory potency of ABH at pH 7.5.
(§2) Quantitative determination of arginase activity was performed in a 96-well format by a colorimetric method using the QuantiChrom™ Arginase Assay Kit available from BioAssay Systems (Hayward, Calif., Catalog No. DARG-200) according to the manufacturer's protocol. Modifications were made to reagent quantities to suit the assaying of a highly purified sample.
(§3) The intensity of the color was directly proportional to the arginase activity in the sample.
(§4) The rate of urea production was measured in the presence of twelve different concentrations of each potential inhibitor compound. In a typical assay, seven different compounds were tested relative to a control inhibitor (e.g. ABH) against one enzyme (either human ArgI or human ArgII) at a particular pH (either 9.5 or 7.5). The pH of the solution was controlled using an appropriate pH buffering compound at 60 mM concentrations; for example, 60 mM glycine (pH 9.5) or 60 mM HEPES (pH 7.5). The half maximal inhibitory concentration (IC50) was determined by constructing a dose-response curve.

human arginase II = target: T2, human arginase II (Homo sapiens, UniProt P78540); experiment: as above; assay type: biochemical
T2 sequence (P78540 23-354): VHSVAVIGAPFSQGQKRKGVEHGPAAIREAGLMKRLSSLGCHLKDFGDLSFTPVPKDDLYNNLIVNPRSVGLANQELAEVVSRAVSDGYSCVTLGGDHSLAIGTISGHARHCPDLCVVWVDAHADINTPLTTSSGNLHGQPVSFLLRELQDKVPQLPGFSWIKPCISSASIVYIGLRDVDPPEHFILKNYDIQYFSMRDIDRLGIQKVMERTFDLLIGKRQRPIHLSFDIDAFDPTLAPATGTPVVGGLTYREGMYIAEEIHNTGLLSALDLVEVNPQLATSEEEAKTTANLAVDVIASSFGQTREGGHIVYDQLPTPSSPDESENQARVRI
Experimental: as §1, §2, §3, §4

Arg I and/or Arg II = experiment: pH effect: inhibitory potency at pH 7.5 compared with pH 9.5; assay type: biochemical, human
Experimental: as §1
as §4, with “curve. As IC50 values are dependent upon the measurement conditions, the IC50 values were converted to the inhibitor binding affinity (K1) using the Cheng-Prusoff equation and the affinity constant (Km) of L-arginine which was estimated with the same activity assay (see, e.g., Cheng et al., 1973, Biochem. Pharmacol. 22:3099-108).” for “curve.”

arginase = target: T3, arginase (Homo sapiens, UniProt P78540); conditions: literature; cited from earlier work
T3 sequence (P78540 23-354): T2 sequence (P78540 23-354)

[1] = system: opossum internal anal sphincter muscle; conditions: cited from earlier work
guinea pigs = conditions: nebulizer treatment, allergic asthma model; cited from earlier work
[2] = system: rabbit and human penile corpus cavernosum; conditions: rabbit and human tissue; cited from earlier work
live male rabbits = conditions: cited from earlier work
[3] = system: corpus cavernosum of the diabetic person; conditions: ex vivo; cited from earlier work
female rabbits = conditions: cited from earlier work
[4] = system: animal model of multiple sclerosis (experimental autoimmune encephalomyelitis); conditions: cited from earlier work
humans = conditions: subcutaneous administration; cited from earlier work
Rats = experiment: Myocardial ischemia-reperfusion injury, infarct size IA/AR; assay type: in vivo; conditions: rat, 2 hrs reperfusion
Experimental: Rats were intraperitoneally (IP) anesthetized to effect with pentobarbital (˜50 mg/kg), shaved and positioned in dorsal recumbence, intubated and ventilated (˜90 breaths/min, ˜2.5 mL tidal volume with 95% O2/5% CO2) with an adjustable small animal ventilator (Harvard Apparatus). Anesthesia was maintained with a continuous sodium pentobarbital infusion (to effect, ˜3 to 5 mg/kg/h, IV) until completion of the study via an indwelling catheter placed in a peripheral vein (e.g., femoral). Body temperature was continuously monitored throughout the duration of the surgical/experimental procedures via a rectal probe, and was maintained within the physiological range via a heated temperature-controlled (closed-loop) small animal surgical table/control unit (Vestavia Scientific).
Subsequently, transthoracic needle electrodes forming a single-lead ECG (e.g., lead II) were placed. Once a surgical plane of anesthesia had been reached, a femoral artery was isolated, dissected free from the surrounding tissue, and cannulated with a 2F high-fidelity micromanometer catheter (Millar Instruments). In order to record arterial/systemic pressures, this catheter was advanced towards the abdominal aorta. An in-dwelling catheter was also placed in a vein (i.e., jugular) for administration of the test article/vehicle, or stains (see below).
Finally, the animals were placed in right-lateral recumbence and the heart was exposed by a left-side thoracotomy/pericardiotomy. Ligatures were loosely placed (using a taper-point needle) around the proximal section of the left anterior descending artery (LAD). Tightening of these snares (via small pieces of polyethylene tubing) rendered a portion of myocardium temporarily ischemic.
Following surgical preparation, the animals were allowed to reach hemodynamic stability (for approximately 15 min), and baseline data was collected. It should be noted that in order to ensure experimental/data homogeneity, all animals must have satisfied the following entry criteria: heart rate >320 bpm and mean arterial pressure >80 mmHg. The anesthetic regime may be adjusted in order to ensure proper anesthesia/analgesia and to satisfy such inclusion criteria.
After hemodynamic stabilization and baseline measurements, the animals were treated with either vehicle or test article delivered as an intravenous bolus. Subsequently (approximately 15 min post-dosing), the animals were subjected to an acute 30 min ischemic insult by tightening of the LAD coronary artery snare. Myocardial ischemia was visually confirmed both by the appearance of cyanotic changes in distal distributions of the LAD as well as by the onset of electrocardiographic changes. After approximately 30 min of induced ischemia, the coronary snares were released and the previously ischemic myocardium was reperfused for up to 2 hrs. Treatments were not administered during either the ischemia and/or reperfusion periods. It should also be noted that in order to minimize any possible confounding effects on indices of myocardial injury, non-self-resolving malignant arrhythmias/rhythms (e.g., ventricular tachycardia/fibrillation) developing during reperfusion were considered terminal (i.e., the experiment was terminated prematurely).
At the completion of the protocol, irreversible myocardial injury (i.e., infarction) resulting from the I/R insult was evaluated. […]

prostate cancer = conditions: cited from earlier work
breast cancer = conditions: cited from earlier work
[5] = Table 2, pH 7.5, read-out: human arginase I pH 7.5, Ki assigned value
[6] = Table 2, pH 9.5, read-out: human arginase I pH 9.5, Ki assigned value
[7] = Table 2, pH 7.5, read-out: human arginase II pH 7.5, Ki assigned value
[8] = Table 2, pH 9.5, read-out: human arginase II pH 9.5, Ki assigned value
[9] = 1 mg/kg iv bolus about 15 min before 30 min ischemia
[10] = 3 mg/kg iv bolus about 15 min before 30 min ischemia

N[C@@H](CCCCB(O)O)C(=O)O [ABH, 2(S)-amino-6-boronohexanoic acid]
Ki (human arginase I; [5]): 51 to 100 nM | Ki (human arginase I; [6]): 11 to 50 nM | Ki (human arginase II; [7]): 101 to 250 nM | Ki (human arginase II; [8]): 11 to 50 nM | increased potency for at least one isozyme (Arg I and/or Arg II; Table 2, pH 7.5 vs pH 9.5): no ^b | potency at pH 7.5 as compared to pH 9.5, arginases (Arg I and/or Arg II; both or at least one of the arginases): decrease in inhibitory potency | inhibitory potency at pH 7.5 vs pH 9.5 (arginase): much lower at pH 7.5 than at pH 9.5 | relaxation of internal anal sphincter muscle [1]: relax this muscle | airway hyperresponsiveness (guinea pigs): prevents airway hyperresponsiveness | NO-dependent relaxation of corpus cavernosum [2]: enhances the NO-dependent relaxation | erectile response (live male rabbits): enhances the erectile response | NO biosynthesis [3]: restores NO biosynthesis | engorgement response in the genitalia (female rabbits): enhances the engorgement response | disease score [4]: improves the disease score

N[C@@H](CSCCB(O)O)C(=O)O [BEC, S-(2-boronoethyl)-L-cysteine]
inhibitory potency at pH 7.5 vs pH 9.5 (arginase): much lower at pH 7.5 than at pH 9.5 | vasodilation and circulation (humans): vasodilatory and enhances circulation

NC(CCCCB(O)O)(CCCN1CCN(Cc2ccc(Cl)c(Cl)c2)CC1)C(=O)O (stereo not shown) [Example 8]
Ki (human arginase I; [5]): < 10 nM | Ki (human arginase I; [6]): 11 to 50 nM | Ki (human arginase II; [7]): 11 to 50 nM | Ki (human arginase II; [8]): 11 to 50 nM | Mean IA/AR (%) (Rats; [9]): 32% | Mean IA/AR (%) (Rats; [10]): 29%

CS(=O)(=O)c1ccc(CN2CCN(CCCC(N)(CCCCB(O)O)C(=O)O)CC2)cc1 (stereo not shown) [Example 10]
Ki (human arginase I; Table 3, pH 7.5, read-out: human Arginase I pH 7.5, Ki assigned value): < 10 nM | Ki (human arginase I; Table 3, pH 9.5, read-out: human Arginase I pH 9.5, Ki assigned value): 11 to 50 nM | Ki (human arginase II; Table 3, pH 7.5, read-out: human Arginase II pH 7.5, Ki assigned value): 11 to 50 nM | Ki (human arginase II; Table 3, pH 9.5, read-out: human Arginase II pH 9.5, Ki assigned value): 11 to 50 nM | Mean IA/AR (%) (Rats; [9]): 24% | Mean IA/AR (%) (Rats; [10]): 22% | Mean IA/AR (%) (Rats; 10 mg/kg iv bolus about 15 min before 30 min ischemia): 17%

N=C(NO)NCCC[C@H](N)C(=O)O [N-hydroxy-L-arginine, N^Ω-hydroxy-L-arginine]
tumor immunotherapy (prostate cancer): facilitates tumor immunotherapy | cell proliferation and apoptosis (breast cancer): inhibits cell proliferation and induces apoptosis
